Like-named read-outs stand apart in the source and are kept apart here.
Columns and labels:
Experiment in all cases: MIC, serial dilution method (CLSI)
[1] = system: Staphylococus pseudintermedius; format: cell-based, Staphylococcus pseudintermedius
Procedure: (§1) These inoculums were each in diluted 1:100 in Müller Hinton (MH) broth (Sigma, Copenhagen, Denmark). From the diluted inoculums 100 μl was transferred to each well in a 96-well plate and mixed with the compound to be MIC determined. The plate was incubated for 24 hours at 37° C. (without shaking). The MIC value was determined as the lowest concentration in which no bacterial growth could be visually detected. All MIC determinations were done in duplicates. […] Since all derivatives are new, no control strains (with reference MIC values) were available.

S. aureus USA300 = format: cell-based, Staphylococcus aureus
Procedure: as §1

S. aureus CC398 = format: cell-based, Staphylococcus aureus
Procedure: as §1

Bacillus cereus = format: cell-based
Procedure: as §1

Salmonella enteritidis = format: cell-based
Procedure: as §1

Listeria monocytogenes = format: cell-based
Procedure: as §1

Streptococcus equi = format: cell-based
Procedure: as §1

E. faecium = format: cell-based, Enterococcus faecium
Procedure: as §1

E. faecalis = format: cell-based, Enterococcus faecalis
Procedure: as §1

E. coli APEC O2 = format: cell-based, Escherichia coli
Procedure: as §1

[2] = Staphylococcus pseudintermedius, 24 h, read-out: MIC
[3] = Staphylococcus aureus, USA300, 24 h, read-out: MIC
[4] = Staphylococcus aureus, MRSA, 24 h, read-out: MIC
[5] = Salmonella enterica, ENTERITIDIS, 24 h, read-out: MIC
[6] = Enterococcus faecium, 24 h, read-out: MIC
[7] = Enterococcus faecalis, 24 h, read-out: MIC
[8] = Escherichia coli, APECO2, 24 h, read-out: MIC
[9] = Staphylococus pseudintermedius, MH broth, 24 hours at 37° C., set to 256 if growth at […]
[10] = S. aureus USA300, MH broth, 24 hours at 37° C., set to 256 if growth at […]
[11] = S. aureus CC398 (MRSA strain), MH broth, 24 hours at 37° C., set to 256 if growth at […]
[12] = MH broth, 24 hours at 37° C., set to 256 if growth at […]
[13] = Salmonella enteritidis, MH broth, 24 hours at 37° C., set to 256 if growth at […]
[14] = E. faecium, MH broth, 24 hours at 37° C., set to 256 if growth at […]
[15] = E. faecalis, MH broth, 24 hours at 37° C., set to 256 if growth at […]
[16] = E. coli APEC O2, MH broth, 24 hours at 37° C., set to 256 if growth at […]

Structure (SMILES) | MIC [1, 2] [µg/mL] | MIC (S. aureus USA300; [3]) [µg/mL] | MIC (S. aureus CC398; [4]) [µg/mL] | MIC (Bacillus cereus; 24 h, read-out: MIC) [µg/mL] | MIC (Salmonella enteritidis; [5]) [µg/mL] | MIC (Listeria monocytogenes; 24 h, read-out: MIC) [µg/mL] | MIC (Streptococcus equi; 24 h, read-out: MIC) [µg/mL] | MIC (E. faecium; [6]) [µg/mL] | MIC (E. faecalis; [7]) [µg/mL] | MIC (E. coli APEC O2; [8]) [µg/mL] | MIC [1, 9] [µg/mL] | MIC (S. aureus USA300; [10]) | MIC (S. aureus CC398; [11]) [µg/mL] | MIC (Bacillus cereus; [12]) [µg/mL] | MIC (Salmonella enteritidis; [13]) [µg/mL] | MIC (Listeria monocytogenes; [12]) [µg/mL] | MIC (Streptococcus equi; [12]) [µg/mL] | MIC (E. faecium; [14]) [µg/mL] | MIC (E. faecalis; [15]) [µg/mL] | MIC (E. coli APEC O2; [16]) [µg/mL]
CCCCC[N+](C)(C)C(C)CN1c2ccccc2Sc2ccccc21.[Br-] (stereo not shown) [Compound S17, N-(1-(10H-phenothiazin-10-yl)propan-2-yl)-N,N-dimethylpentan-1-aminium bromide] | 4 | 8 | 32 | 8 | 64 | 8 | 4 | 16 | 32 | 64 | – | – | – | – | – | – | – | – | – | –
COC(=O)CCCCC[N+](C)(C)CCC=C1c2ccccc2Sc2ccc(Cl)cc21 [Chlorprothixene 6-Methoxy-6-oxo-1-hexyl] | – | – | – | – | – | – | – | – | – | – | 8 | 8 µg/mL | 8 | 8 | 128 | 8 | 8 | 64 | 128 | 128
CC(C)CC[N+](C)(C)C(C)CN1c2ccccc2Sc2ccccc21.[Br-] (stereo not shown) [Compound S16, N-(1-(10H-phenothiazin-10-yl)propan-2-yl)-N,N,3-trimethylbutan-1-aminium bromide] | 8 | 16 | 16 | 16 | 128 | 32 | 8 | 64 | 64 | 64 | – | – | – | – | – | – | – | – | – | –
CC(C)[N+](C)(C)C(C)CN1c2ccccc2Sc2ccccc21.[Br-] (stereo not shown) [Compound S15, N-isopropyl-N,N-dimethyl-1-(10H-phenothiazin-10-yl)propan-2-aminium bromide] | 32 | 64 | 16 | 128 | 128 | 128 | 256 | 128 | 128 | 128 | – | – | – | – | – | – | – | – | – | –
CC(C)=CCCC(C)CC[N+](C)(C)C(C)CN1c2ccccc2Sc2ccccc21.Cc1ccc(S(=O)(=O)[O-])cc1 (stereo not shown) [Compound S45, N-(1-(10H-phenothiazin-10-yl)propan-2-yl)-N,N,3,7-tetramethyloct-6-en-1-aminium 4-methylbenzenesulfonate] | – | 4 | – | – | – | – | – | – | – | – | – | – | – | – | – | – | – | – | – | –

Results, then the molecule that gave them:

MIC [1, 2] [µg/mL] | MIC (S. aureus USA300; [3]) [µg/mL] | MIC (S. aureus CC398; [4]) [µg/mL] | MIC (Bacillus cereus; 24 h, read-out: MIC) [µg/mL] | MIC (Salmonella enteritidis; [5]) [µg/mL] | MIC (Listeria monocytogenes; 24 h, read-out: MIC) [µg/mL] | MIC (Streptococcus equi; 24 h, read-out: MIC) [µg/mL] | MIC (E. faecium; [6]) [µg/mL] | MIC (E. faecalis; [7]) [µg/mL] | MIC (E. coli APEC O2; [8]) [µg/mL] | MIC [1, 9] [µg/mL] | MIC (S. aureus USA300; [10]) | MIC (S. aureus CC398; [11]) [µg/mL] | MIC (Bacillus cereus; [12]) [µg/mL] | MIC (Salmonella enteritidis; [13]) [µg/mL] | MIC (Listeria monocytogenes; [12]) [µg/mL] | MIC (Streptococcus equi; [12]) [µg/mL] | MIC (E. faecium; [14]) [µg/mL] | MIC (E. faecalis; [15]) [µg/mL] | MIC (E. coli APEC O2; [16]) [µg/mL] | Structure (SMILES)
2 | 4 | 2 | 2 | 64 | 2 | 2 | 2 | 4 | 64 | – | – | – | – | – | – | – | – | – | – | CCCCCCCCCCCC[N+]1(C)CCCCC1CCN1c2ccccc2Sc2ccc(SC)cc21.[Br-] (stereo not shown) [Compound S29, 1-dodecyl-1-methyl-2-(2-(2-(methylthio)-10H-phenothiazin-10-yl)ethyl)piperidin-1-ium bromide]
– | 4 | – | – | – | – | – | – | – | – | – | – | – | – | – | – | – | – | – | – | CCCCCCCCCCCC[N+](C)(C)CC/C=C1/c2ccccc2Sc2ccc(Cl)cc21.[Br-] [Compound S39, (Z)—N-(3-(2-chloro-9H-thioxanthen-9-ylidene)propyl)-N,N-dimethyldodecan-1-aminium bromide]
– | – | – | – | – | – | – | – | – | – | – | 8/16 | – | – | – | – | – | – | – | – | CCCCCCCCCCCCCC[N+](C)(C)C(C)CN1c2ccccc2Sc2ccccc21.[Br-] (stereo not shown) [Compound S44, N-(1-(10H-phenothiazin-10-yl)propan-2-yl)-N,N-dimethyltetradecan-1-aminium bromide]
32 | 32 | 32 | 64 | 256 | 128 | 256 | 128 | 128 | 256 | – | – | – | – | – | – | – | – | – | – | CC[N+](C)(C)CC/C=C1/c2ccccc2Sc2ccc(Cl)cc21.[Br-] [Compound S36, (Z)-3-(2-chloro-9H-thioxanthen-9-ylidene)-N-ethyl-N,N-dimethylpropan-1-aminium bromide]
– | – | – | – | – | – | – | – | – | – | 16 | 16 µg/mL | 16 | 32 | 128 | 32 | 16 | 64 | 128 | 128 | CC(CN1c2ccccc2Sc2ccccc21)[N+](C)(C)Cc1ccccc1 (stereo not shown) [Promethazine Benzyl]
